In brackets after ≈: the same amount, converted by molar mass. Read-outs that look alike come from different tables or passages of the source. Blank lines part the entries; values can stand above or below the molecule they belong to.
Experiments:
C-kinase = details: literature, in words; cited from earlier work
COLO320DM cells = experiment: COLO320DM cell growth inhibition test; type: cell-based; details: Homo sapiens, COLO 320DM, read-out: cell growth inhibitory activity IC50, COLO320DM
Description: (§1) After incubation at 37° C. overnight in CO2 -incubator, 0.05 ml each of a test sample appropriately diluted with the culture medium is added to each well. In the case of contact for 72 hours, the cells are further cultured in CO2 -incubator, and then the culture supernatant is removed and the wells are washed once with PBS(-). Thereafter, 0.1 ml of fresh medium is added to each well, followed by culturing at 37° C. for 72 hours in CO2 -incubator. After the culture supernatant is removed, 0.1 ml of the culture medium containing 0.02% Neutral Red is added to each well, followed by culturing at 37° C. for one hour in CO2 -incubator, whereby the cells are stained. Then, the culture supernatant is removed and the cells are washed once with physiological saline. The pigment is extracted with 0.001N HCl/30% ethanol and absorption is measured at 550 nm with a microplate reader.
(4) COLO320DM cell growth inhibition test:
Thereafter, the test is carried out in the same manner as in (1) except that the cells are counted with a microcell counter.

PC-10 cells = experiment: PC-10 cell growth inhibition test; type: cell-based; details: Homo sapiens, read-out: cell growth inhibitory activity IC50, PC-10
Description: (§2) Compound (I) was examined for C-kinase inhibitory activity and cell growth inhibitory activity by the following method.
as §1, with “MCF 7 cells (4.5×10^4 cells/ml) prepared in RPMI 1640 medium containing 10% fetal calf serum, 10 μg/ml insulin and 10^-8 M estradiol are put into wells of a 96-well microtiter plate in the amount of 0.1 ml per each well. After incubation” for “After incubation”, “microplate reader. By comparing the absorption of intact cells with those of the cells treated with a test compound in known concentrations, the concentration of the test compound at which growth of the cells is inhibited 50% is calculated as IC50.” for “microplate reader.”
(2) PC-10 cell growth inhibition test:
PC-10 cells (5×10^4 cells/ml) prepared in MEM medium containing 10% fetal calf serum and 2 mM glutamine are put into wells of a 96-well microtiter plate in the amount of 0.1 ml per each well.
Thereafter, the test is carried out in the same manner as in the MCF 7 cell growth inhibition test.

MCF 7 cells = experiment: MCF 7 cell growth inhibition test; type: cell-based; details: Homo sapiens, read-out: cell growth inhibitory activity IC50, MCF-7
Description: as §2
(1) MCF 7 cell growth inhibition test:
as §1, with “MCF 7 cells (4.5×10^4 cells/ml) prepared in RPMI 1640 medium containing 10% fetal calf serum, 10 μg/ml insulin and 10^-8 M estradiol are put into wells of a 96-well microtiter plate in the amount of 0.1 ml per each well. After incubation” for “After incubation”, “microplate reader. By comparing the absorption of intact cells with those of the cells treated with a test compound in known concentrations, the concentration of the test compound at which growth of the cells is inhibited 50% is calculated as IC50.” for “microplate reader.”

HeLaS3 cells = experiment: HeLaS3 cell growth inhibition test; type: cell-based; details: Homo sapiens, read-out: cell growth inhibitory activity IC50, HeLaS3
Description: as §2
as §1, with “MCF 7 cells (4.5×10^4 cells/ml) prepared in RPMI 1640 medium containing 10% fetal calf serum, 10 μg/ml insulin and 10^-8 M estradiol are put into wells of a 96-well microtiter plate in the amount of 0.1 ml per each well. After incubation” for “After incubation”, “microplate reader. By comparing the absorption of intact cells with those of the cells treated with a test compound in known concentrations, the concentration of the test compound at which growth of the cells is inhibited 50% is calculated as IC50.” for “microplate reader.”
(3) HeLaS3 cell growth inhibition test:
HeLaS3 cells (3×10^4 cells/ml) prepared in MEM medium containing 10% fetal calf serum and 2 mM glutamine are put into wells of a 96-well microtiter plate in the amount of 0.1 ml per each well.
Thereafter, the test is carried out in the same manner as in (1).

[1] = molecular target: C-kinase (protein kinase C); experiment: C-Kinase inhibitory activity test; type: biochemical; details: enzyme activity inhibited 50%
[2] = literature, in words; cited from earlier work
[3] = literature, in words; cited from earlier work; remark: listed apart in the source
histamine release = details: literature, in words; cited from earlier work
[4] = COLO320DM cells, cells counted with a microcell counter
[5] = PC10, PC-10 cells, contact for 72 hours
[6] = MCF7, MCF-7 cells, contact for 72 hours
[7] = HeLa S3, HeLaS3 cells, contact for 72 hours

Structure (SMILES): CCCCNc1ccc(C(=O)OCCN(C)C)cc1 [tetracaine]
- C-kinase inhibitory activity (C-kinase): low

Structure (SMILES): CN(C)CCCN1c2ccccc2Sc2ccc(Cl)cc21 [chlorpromazine]
- C-kinase inhibitory activity (C-kinase): low

- IC50 (HeLaS3 cells; [7]): 0.28 µg/mL (≈ 0.581 µM)
- C-Kinase inhibitory activity IC50 [1]: 0.015 µg/mL
Structure (SMILES): CC12OC(CC13COC(=S)O3)n1c3ccccc3c3c4c(c5c6ccccc6n2c5c31)CNC4=O (centres unmarked) [Compound 54]
- IC50 (COLO320DM cells; [4]): 0.08 µg/mL (≈ 0.166 µM)
- IC50 (PC-10 cells; [5]): 0.11 µg/mL (≈ 0.228 µM)
- IC50 (MCF 7 cells; [6]): 1 µg/mL (≈ 2.08 µM)

Structure (SMILES): NCCCCCCNS(=O)(=O)c1cccc2c(Cl)cccc12 [Compound W-7, N-(6-aminohexy)-5-chloro-1-naphthalenesulfonamide]
- C-kinase inhibitory activity (C-kinase): low

- IC50 (HeLaS3 cells; [7]): 0.04 µg/mL (≈ 0.0861 µM)
- C-Kinase inhibitory activity IC50 [1]: 0.02 µg/mL
Structure (SMILES): CC12OC(CC13CNC(=O)O3)n1c3ccccc3c3c4c(c5c6ccccc6n2c5c31)CNC4=O (centres unmarked) [Compound 57]
- IC50 (COLO320DM cells; [4]): 0.37 µg/mL (≈ 0.797 µM)
- IC50 (PC-10 cells; [5]): 0.1 µg/mL (≈ 0.215 µM)
- IC50 (MCF 7 cells; [6]): 0.15 µg/mL (≈ 0.323 µM)

Structure (SMILES): CN1CCN(CCCN2c3ccccc3Sc3ccc(C(F)(F)F)cc32)CC1 [trifluoperazine]
- C-kinase inhibitory activity (C-kinase): low

Structure (SMILES): CN[C@@H]1C[C@H]2O[C@@](C)([C@@H]1OC)n1c3ccccc3c3c4c(c5c6ccccc6n2c5c31)C(=O)NC4 [Staurosporine]
- antibacterial activity [2]: antibacterial activity

Structure (SMILES): COC(=O)[C@@]1(O)C[C@H]2O[C@]1(C)n1c3ccccc3c3c4c(c5c6ccccc6n2c5c31)C(=O)NC4 (relative stereo) [Compound K-252]
- antibacterial activity [2]: antibacterial substances
- anti-allergic activity [3]: anti-allergic activity
- activity to inhibit histamine release (histamine release): activity to inhibit histamine release

Structure (SMILES): C[C@]12O[C@H](C[C@]1(O)C(=O)O)n1c3ccccc3c3c4c(c5c6ccccc6n2c5c31)CNC4=O (relative stereo) [KT-5556]
- antibacterial activity [2]: antibacterial substances
- activity to inhibit histamine release (histamine release): activity to inhibit histamine release

Structure (SMILES): C[C@]12O[C@H](C[C@]1(O)CO)n1c3ccccc3c3c4c(c5c6ccccc6n2c5c31)CNC4=O (relative stereo) [Compound 20]
- IC50 (COLO320DM cells): 0.05 µg/mL (≈ 0.114 µM)
- IC50 (PC-10 cells; PC10, 72 h): 0.11 µg/mL (≈ 0.25 µM)
- IC50 (MCF 7 cells; MCF7, 72 h): 0.55 µg/mL (≈ 1.25 µM)
- IC50 (HeLaS3 cells; HeLa S3, 72 h): 0.07 µg/mL (≈ 0.159 µM)
- C-Kinase inhibitory activity IC50 [1]: 0.02 µg/mL

Structure (SMILES): ClCCN(Cc1ccccc1)Cc1ccccc1 [dibenamine]
- C-kinase inhibitory activity (C-kinase): low

Source: US4923986A, “Derivatives of physiologically active substance K-252” (Kyowa Hakko Kogyo Co., Ltd., priority 1988, dated 1990)
